Measured values reported in article PMC10657973 (Journal of Pharmaceutical Analysis, 2023).
Structures can show the parent of a compound that is named as a salt. Each block holds one compound with its values, some of them ahead of it.

What was measured:
[1] = molecular target: T1, OAT3 (Homo sapiens, UniProt Q8TCC7); assay: Uptake of UTs in HEK293T-OAT3 cells; format: cell-based; settings: 100 μM, 30 min, 37 °C; for uptake of HSA-bound UT in OAT3-overexpressing cells vs control cells: with HSA; for uptake of free UT in OAT3-overexpressing cells vs control cells: without HSA
T1 sequence (Q8TCC7 1-542): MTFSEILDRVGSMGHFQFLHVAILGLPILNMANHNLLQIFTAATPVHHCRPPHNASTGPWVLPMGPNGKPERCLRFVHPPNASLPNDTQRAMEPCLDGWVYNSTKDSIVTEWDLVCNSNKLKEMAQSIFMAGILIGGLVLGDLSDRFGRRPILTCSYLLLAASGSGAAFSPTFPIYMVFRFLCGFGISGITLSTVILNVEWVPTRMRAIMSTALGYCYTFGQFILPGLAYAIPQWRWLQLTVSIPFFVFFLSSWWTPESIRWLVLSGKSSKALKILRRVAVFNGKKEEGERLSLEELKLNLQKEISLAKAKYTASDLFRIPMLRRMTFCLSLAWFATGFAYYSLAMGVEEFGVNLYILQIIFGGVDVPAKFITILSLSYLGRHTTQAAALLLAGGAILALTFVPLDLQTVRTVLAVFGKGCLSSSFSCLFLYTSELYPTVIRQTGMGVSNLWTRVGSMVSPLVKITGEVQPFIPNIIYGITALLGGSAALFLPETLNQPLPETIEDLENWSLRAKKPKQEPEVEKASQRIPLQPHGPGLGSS

[2] = tested on: rOATs; assay: rOATs inhibition experiment
[3] = tested on: MRP4; assay: Intracellular accumulation of UTs in MRP4-overexpressing cells; format: cell-based, human; settings: 100 μM, 30 min, 37 °C, 4 mM ATP
[4] = tested on: rOAT1/3; assay: rOAT1/3−/− rat experiment; format: in vivo, rats; settings: Fig. S7F
[5] = molecular target: T2, OAT1 (Homo sapiens, UniProt Q4U2R8); assay: Uptake of UTs in HEK293T-OAT1 cells; format: cell-based; settings: 100 μM, 30 min, 37 °C; for uptake of HSA-bound UT in OAT1-overexpressing cells vs control cells: with HSA; for uptake of free UT in OAT1-overexpressing cells vs control cells: without HSA
T2 sequence (Q4U2R8 1-563): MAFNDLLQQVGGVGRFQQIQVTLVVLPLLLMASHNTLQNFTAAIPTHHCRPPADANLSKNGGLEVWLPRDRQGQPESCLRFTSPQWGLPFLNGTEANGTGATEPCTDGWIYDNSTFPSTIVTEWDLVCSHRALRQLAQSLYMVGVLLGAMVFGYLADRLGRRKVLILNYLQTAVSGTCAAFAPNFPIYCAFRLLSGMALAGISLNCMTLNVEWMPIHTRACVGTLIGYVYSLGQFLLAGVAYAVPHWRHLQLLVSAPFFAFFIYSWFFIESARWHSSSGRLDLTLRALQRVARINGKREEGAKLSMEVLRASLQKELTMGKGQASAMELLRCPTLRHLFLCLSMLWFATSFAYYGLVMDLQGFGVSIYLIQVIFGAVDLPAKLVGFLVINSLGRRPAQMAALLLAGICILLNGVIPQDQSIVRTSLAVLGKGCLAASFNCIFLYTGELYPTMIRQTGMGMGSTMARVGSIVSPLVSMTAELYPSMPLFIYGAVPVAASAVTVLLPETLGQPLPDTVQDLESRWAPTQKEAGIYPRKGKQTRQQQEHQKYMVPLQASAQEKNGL

[6] = tested on: HSA; settings: 4% HSA, about 100 μM UT, 37 °C, 2 h; cited from earlier work
[7] = tested on: rMRP4; format: in vivo, rats; settings: rat, in vivo
[8] = Correlation between biomarkers and cefmetazole pharmacokinetics in rats; format: in vivo; settings: PROB 60 and 120 mg/kg 7 days; cefmetazole 100 mg/kg i.v.
[9] = tested on: serum protein; assay: Protein-binding ratio of UTs in rat serum; format: in vitro ADME, rats; settings: ultrafiltration at 37 °C
[10] = format: in vivo, rats; settings: rats; for Renal clearance half-life (t1/2), Control: 2 mg/kg i.v., urine 0-12 h; for renal excretion with MK-571 vs control: MK-571 20 mg/kg; for renal excretion with PROB vs control: PROB 60 mg/kg

Compound: O=C(O)CNC(=O)c1ccccc1 [Hippuric acid, hippuric acid]
uptake of HSA-bound UT in OAT3-overexpressing cells vs control cells [1]: dramatically increased
uptake of free UT in OAT3-overexpressing cells vs control cells [1]: dramatically increased
serum levels in rats treated with PROB vs control ([2]; PROB 30, 60, 120 mg/kg oral, 7 days): no significant change
intracellular accumulation in MRP4-overexpressing cells vs control cells [3]: slightly decreased
renal elimination in rOAT1/3−/− rats [4]: substantially inhibited

Compound: O=C(O)Cc1c[nH]c2ccccc12 [Indole-3-acetic acid, indole-3-acetic acid]
uptake of HSA-bound UT in OAT1-overexpressing cells vs control cells [5]: significantly increased
uptake of free UT in OAT1-overexpressing cells vs control cells [5]: significantly increased

Compound: CC(=O)Nc1ccn([C@@H]2O[C@H](CO)[C@@H](O)[C@H]2O)c(=O)n1 [N-acetylcytidine]
uptake of free UT in OAT3-overexpressing cells vs control cells [1]: significantly increased
uptake of free UT in OAT1-overexpressing cells vs control cells [5]: significantly increased

Compound: CN1CC(=O)NC1=N [Creatinine, creatinine]
Protein-binding ratio, HSA binding in vitro (%) (n = 3) [6]: below 50%
renal clearance rate in rMRP4−/− rats vs WT [7]: not significantly altered
renal uptake ratio in rMRP4−/− rats vs WT [7]: not significantly altered
serum levels in rMRP4−/− rats vs WT [7]: not significantly altered
plasma concentrations in rats treated with PROB [8]: did not change significantly
Protein-binding ratio, Normal rats in vivo (%) (n = 6) [9]: less than 24%
renal elimination in rOAT1/3−/− rats [4]: unaffected

Compound: O=S(=O)(O)Oc1c[nH]c2ccccc12 [3-indoxyl sulfate]
uptake of HSA-bound UT in OAT3-overexpressing cells vs control cells [1]: no significant change
uptake of free UT in OAT3-overexpressing cells vs control cells [1]: substantially elevated

Compound: CC(=O)N[C@@H](CCCN=C(N)N)C(=O)O [N-acetyl-L-arginine]
intracellular accumulation in MRP4-overexpressing cells vs control cells [3]: significantly decreased

Compound: Nc1ccccc1C(=O)C[C@@H](N)C(=O)O [D-kynurenine]
Protein-binding ratio, Normal rats in vivo (%) (n = 6) [9]: > 90%
uptake of HSA-bound UT in OAT1-overexpressing cells vs control cells [5]: markedly increased
uptake of free UT in OAT1-overexpressing cells vs control cells [5]: markedly increased

Compound: OC[C@H]1O[C@@H](Oc2c[nH]c3ccccc23)[C@H](O)[C@@H](O)[C@@H]1O [3-indoxyl-β-D-glucopyranoside]
uptake of HSA-bound UT in OAT3-overexpressing cells vs control cells [1]: markedly increased
uptake of free UT in OAT3-overexpressing cells vs control cells [1]: markedly increased
Protein-binding ratio, Normal rats in vivo (%) (n = 6) [9]: > 90%

Compound: Cn1cnc2c(ncn2[C@@H]2O[C@H](CO)[C@@H](O)[C@H]2O)c1=O [1-methyl-inosine]
uptake of free UT in OAT3-overexpressing cells vs control cells [1]: significantly higher

Compound: N[C@@H](Cc1ccc(O)c(O)c1)C(=O)O [3-(3,4-dihydroxyphenyl)-L-alanine]
Protein-binding ratio, Normal rats in vivo (%) (n = 6) [9]: < 70%

Compound: Cc1ccc(OS(=O)(=O)O)cc1 [p-cresol sulfate]
uptake of free UT in OAT3-overexpressing cells vs control cells [1]: significantly increased
Protein-binding ratio, Normal rats in vivo (%) (n = 6) [9]: > 90%
uptake of HSA-bound UT in OAT1-overexpressing cells vs control cells [5]: significantly increased
uptake of free UT in OAT1-overexpressing cells vs control cells [5]: significantly increased

Compound: CN(C)c1nc2c(ncn2[C@@H]2O[C@H](CO)[C@@H](O)[C@H]2O)c(=O)[nH]1 [N, N-dimethylguanosine, N,N-dimethylguanosine]
Protein-binding ratio, HSA binding in vitro (%) (n = 3) [6]: below 50%
Protein-binding ratio, Normal rats in vivo (%) (n = 6) [9]: less than 24%

Compound: NCCCC[C@H](NCC(=O)O)C(=O)O [N-(1-carboxymethyl)-L-lysine]
Protein-binding ratio, Normal rats in vivo (%) (n = 6) [9]: < 70%

Compound: CCc1ccc(OS(=O)(=O)[O-])cc1.[K+] [4-ethylphenyl sulfate]
uptake of HSA-bound UT in OAT3-overexpressing cells vs control cells [1]: no significant change
uptake of free UT in OAT3-overexpressing cells vs control cells [1]: substantially elevated
Protein-binding ratio, Normal rats in vivo (%) (n = 6) [9]: > 90%
uptake of HSA-bound UT in OAT1-overexpressing cells vs control cells [5]: no significant change
uptake of free UT in OAT1-overexpressing cells vs control cells [5]: substantially elevated

More lines, main results first:

uptake of free UT in OAT3-overexpressing cells vs control cells [1]: mediated by OAT1 and OAT3
serum level in vivo (detectability by LC-MS/MS) ([2]; rats / in vivo): below the lowest detection limit
intracellular accumulation in MRP4-overexpressing cells vs control cells [3]: efflux by MRP4
uptake of free UT in OAT1-overexpressing cells vs control cells [5]: mediated by OAT1 and OAT3
Compound: O=C(O)c1cc(O)c2cccc(O)c2n1 [xanthurenic, xanthurenic acid]

histological structure of kidney ([2]; rats, H&E staining): unchanged
Compound: CCCN(CCC)S(=O)(=O)c1ccc(C(=O)O)cc1 [PROB, probenecid, reference compound]

uptake of HSA-bound UT in OAT3-overexpressing cells vs control cells [1]: markedly increased
uptake of free UT in OAT3-overexpressing cells vs control cells [1]: markedly increased
Protein-binding ratio, Normal rats in vivo (%) (n = 6) [9]: < 70%
Compound: Cc1ccc(O[C@@H]2O[C@H](C(=O)O)[C@@H](O)[C@H](O)[C@H]2O)cc1 [p-cresol glucuronide]

Renal clearance half-life (t1/2), Control [10]: 3.7 ± 0.7 h
Compound: [2H]c1c([2H])c([2H])c2c(O)c([2H])c(C(=O)O)nc2c1[2H] [d5-kynurenic acid]

Protein-binding ratio, Normal rats in vivo (%) (n = 6) [9]: less than 24%
Compound: O=C(O)c1cc(=O)[nH]c(=O)[nH]1 [Orotic acid, orotic acid]
Protein-binding ratio, HSA binding in vitro (%) (n = 3) [6]: below 50%

Renal clearance half-life (t1/2), Control [10]: 1.9 ± 0.3 h
renal excretion with MK-571 vs control [10]: did not affect
renal excretion with PROB vs control [10]: did not affect
Compound: d3-CMPF

Protein-binding ratio, Normal rats in vivo (%) (n = 6) [9]: less than 24%
Compound: O=c1[nH]cc([C@@H]2O[C@H](CO)[C@@H](O)[C@H]2O)c(=O)[nH]1 [Pseudouridine, pseudouridine]
Protein-binding ratio, HSA binding in vitro (%) (n = 3) [6]: below 50%

uptake of HSA-bound UT in OAT3-overexpressing cells vs control cells [1]: significantly increased
uptake of free UT in OAT3-overexpressing cells vs control cells [1]: significantly increased
Protein-binding ratio, Normal rats in vivo (%) (n = 6) [9]: < 70%
Compound: O=C(O)[C@H]1O[C@@H](Oc2ccccc2)[C@H](O)[C@@H](O)[C@@H]1O [Phenyl-β-D-glucuronide, phenyl-β-D-glucuronide]

renal excretion with MK-571 vs control [10]: reduce
renal excretion with PROB vs control [10]: reduce
Compound: [2H]c1c([2H])c([2H])c2c(O)c([2H])c(C(=O)O)nc2c1O [d4-xanthurenic acid]
